Measurements from ChEMBL document CHEMBL1201862, “PubChem BioAssay data set” (2004).
Activity calls are given as the source filed them.

Assays:
[1] = C. albicans growth with fluconazole, confirmation, fluorescence, retest (AID 2467); format: functional, cell-based
[2] = (§1) Counterscreen for antagonists of the orexin 1 receptor (OX1R; HCRTR1): Fluorescence-based cell-based high throughput dose response assay to identify antagonists of the parental CHO cell line. [Related pubchem assays (depositor defined):AID434989, AID435008, AID463079, AID485270, AID492963, AID492964, AID492965, AID493232, AID504699, AID504701]; format: functional
Orexin receptor type 2 [3] = target: T1, Orexin receptor type 2 (Homo sapiens, UniProt O43614); assay: Counterscreen assay for antagonists of the orexin 1 receptor (OX1R; HCRTR1): Fluorescence-based cell-based dose response assay for antagonists of the orexin 2 receptor (OX2R; HCRTR2), run by assay provider.; format: functional
T1 sequence (O43614 whole entry): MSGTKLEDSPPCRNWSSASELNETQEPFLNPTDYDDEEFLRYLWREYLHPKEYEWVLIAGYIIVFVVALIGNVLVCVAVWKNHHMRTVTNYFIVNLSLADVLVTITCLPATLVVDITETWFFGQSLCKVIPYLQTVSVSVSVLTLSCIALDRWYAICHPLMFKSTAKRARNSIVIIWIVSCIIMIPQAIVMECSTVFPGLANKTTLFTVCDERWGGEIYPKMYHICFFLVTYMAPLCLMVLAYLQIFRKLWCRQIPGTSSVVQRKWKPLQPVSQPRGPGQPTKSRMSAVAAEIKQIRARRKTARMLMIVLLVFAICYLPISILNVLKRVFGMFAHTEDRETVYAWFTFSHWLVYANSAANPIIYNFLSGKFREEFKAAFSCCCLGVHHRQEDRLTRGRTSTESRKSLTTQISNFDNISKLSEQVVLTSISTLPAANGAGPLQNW

[4] = target: T2, Orexin/Hypocretin receptor type 1 (Homo sapiens, UniProt O43613); assay: Homogeneous Time Resolved Fluorescence (HTRF)-based cell-based high throughput dose response assay for antagonists of the orexin 1 receptor (OX1R; HCRTR1). [Related pubchem assays (depositor defined):AID434989, AID435008, AID463079, AID485270, AID492963, AID492964, AID492965, AID493232, AID504717, AID504718]; format: functional
T2 sequence (O43613 whole entry): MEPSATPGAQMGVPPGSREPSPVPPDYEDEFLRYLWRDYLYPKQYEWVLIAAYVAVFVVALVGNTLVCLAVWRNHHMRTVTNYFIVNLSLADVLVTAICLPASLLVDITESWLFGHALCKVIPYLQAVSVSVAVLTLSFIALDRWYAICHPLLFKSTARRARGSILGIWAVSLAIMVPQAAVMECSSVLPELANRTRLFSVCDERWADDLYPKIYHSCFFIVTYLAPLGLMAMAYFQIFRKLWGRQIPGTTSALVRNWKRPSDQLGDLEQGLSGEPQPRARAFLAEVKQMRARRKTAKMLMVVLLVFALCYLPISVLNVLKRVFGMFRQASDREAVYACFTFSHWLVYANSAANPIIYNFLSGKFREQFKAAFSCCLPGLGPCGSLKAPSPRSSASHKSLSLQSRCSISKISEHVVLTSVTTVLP

[5] = target: NAD-dependent protein deacylase sirtuin-5, mitochondrial (Homo sapiens, UniProt Q9NXA8); assay: SIRT5 desuccinylase inhibitors, dose response, biochemical, fluorescence imaging, cherry-pick, set 5 (AID 720591);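 also: desuccinylation of succinyl peptide AMC substrate read as fluorescence after trypsin release; potency of inhibitors that lower fluorescence and may act on trypsin instead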
Sequence of NAD-dependent protein deacylase sirtuin-5, mitochondrial (Q9NXA8 whole entry): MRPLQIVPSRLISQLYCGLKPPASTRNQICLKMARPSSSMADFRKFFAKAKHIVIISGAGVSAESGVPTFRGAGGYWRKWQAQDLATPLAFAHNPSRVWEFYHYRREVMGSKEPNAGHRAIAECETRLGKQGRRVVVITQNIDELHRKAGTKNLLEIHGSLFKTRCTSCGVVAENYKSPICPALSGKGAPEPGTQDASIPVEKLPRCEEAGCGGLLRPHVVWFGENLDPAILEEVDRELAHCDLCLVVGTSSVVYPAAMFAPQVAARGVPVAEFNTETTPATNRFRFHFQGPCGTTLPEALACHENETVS

[6] = NIH-3T3 fibroblast cytotoxicity, dose response, cytotoxicity control, cell-based, fluorescence, Alamar Blue, secondary assay (AID 2327); format: functional;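 also: NIH-3T3 mouse fibroblasts cultured with fluconazole at 8 µg/mL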
Orexin receptor type 2 [7] = target: T1, Orexin receptor type 2; assay: Counterscreen assay for antagonists of the orexin 1 receptor (OX1R; HCRTR1): Homogeneous Time Resolved Fluorescence (HTRF)-based cell-based dose response assay for antagonists of the orexin 2 receptor (OX2R; HCRTR2), run by assay provider.; format: functional
CHO-K1 = assay: as §1, with “Homogeneous time resolved fluorescence (HTRF)-based” for “Fluorescence-based”, “cell-based” for “cell-based high throughput”, “CHO-K1” for “CHO”; format: functional; conditions: Cricetulus griseus
[8] = target: T2, Orexin/Hypocretin receptor type 1; assay: Fluorescence-based cell-based high throughput dose response assay for antagonists of the orexin 1 receptor (OX1R; HCRTR1). [Related pubchem assays (depositor defined):AID434989, AID435008, AID463079, AID485270, AID492963, AID492964, AID492965, AID493232, AID504717, AID504718]; format: functional
[9] = target: T3, Sentrin-specific protease 6 (Homo sapiens, UniProt Q9GZR1); assay: SENP6 protease inhibitors, SAR follow-up, biochemical, luminescence, set 2 (AID 588598); format: functional
T3 sequence (Q9GZR1 whole entry): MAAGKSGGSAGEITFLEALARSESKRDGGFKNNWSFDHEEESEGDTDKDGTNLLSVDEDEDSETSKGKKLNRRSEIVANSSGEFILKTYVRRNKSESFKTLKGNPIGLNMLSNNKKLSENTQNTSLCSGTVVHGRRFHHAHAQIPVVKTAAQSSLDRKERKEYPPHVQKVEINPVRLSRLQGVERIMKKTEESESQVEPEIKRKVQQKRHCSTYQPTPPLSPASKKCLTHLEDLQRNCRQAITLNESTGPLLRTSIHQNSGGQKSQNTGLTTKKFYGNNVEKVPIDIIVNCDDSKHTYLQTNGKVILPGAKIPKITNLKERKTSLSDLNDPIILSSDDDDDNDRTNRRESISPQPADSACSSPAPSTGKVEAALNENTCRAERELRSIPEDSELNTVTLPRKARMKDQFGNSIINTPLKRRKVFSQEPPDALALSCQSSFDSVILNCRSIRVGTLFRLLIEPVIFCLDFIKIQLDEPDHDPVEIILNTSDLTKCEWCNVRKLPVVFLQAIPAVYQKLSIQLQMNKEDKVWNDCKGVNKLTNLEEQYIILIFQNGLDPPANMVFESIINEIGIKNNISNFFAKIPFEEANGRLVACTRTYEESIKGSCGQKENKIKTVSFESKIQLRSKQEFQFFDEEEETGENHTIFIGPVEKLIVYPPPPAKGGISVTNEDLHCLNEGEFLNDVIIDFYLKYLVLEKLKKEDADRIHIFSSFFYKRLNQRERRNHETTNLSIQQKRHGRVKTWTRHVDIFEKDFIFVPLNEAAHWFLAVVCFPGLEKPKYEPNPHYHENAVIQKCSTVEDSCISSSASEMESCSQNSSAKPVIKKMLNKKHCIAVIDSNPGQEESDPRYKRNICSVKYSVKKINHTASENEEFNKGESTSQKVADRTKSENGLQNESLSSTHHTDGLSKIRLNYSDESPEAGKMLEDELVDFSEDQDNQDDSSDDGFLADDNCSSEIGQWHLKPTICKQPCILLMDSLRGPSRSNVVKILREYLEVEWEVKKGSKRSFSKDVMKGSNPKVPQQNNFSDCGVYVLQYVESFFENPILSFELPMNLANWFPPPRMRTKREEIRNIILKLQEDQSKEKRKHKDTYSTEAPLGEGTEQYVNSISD

[10] = target: T4, Sentrin-specific protease 7 (Homo sapiens, UniProt Q9BQF6); assay: SENP7 protease inhibitors, SAR follow-up, biochemical, luminescence, set 2 (AID 588600); format: functional
T4 sequence (Q9BQF6 whole entry): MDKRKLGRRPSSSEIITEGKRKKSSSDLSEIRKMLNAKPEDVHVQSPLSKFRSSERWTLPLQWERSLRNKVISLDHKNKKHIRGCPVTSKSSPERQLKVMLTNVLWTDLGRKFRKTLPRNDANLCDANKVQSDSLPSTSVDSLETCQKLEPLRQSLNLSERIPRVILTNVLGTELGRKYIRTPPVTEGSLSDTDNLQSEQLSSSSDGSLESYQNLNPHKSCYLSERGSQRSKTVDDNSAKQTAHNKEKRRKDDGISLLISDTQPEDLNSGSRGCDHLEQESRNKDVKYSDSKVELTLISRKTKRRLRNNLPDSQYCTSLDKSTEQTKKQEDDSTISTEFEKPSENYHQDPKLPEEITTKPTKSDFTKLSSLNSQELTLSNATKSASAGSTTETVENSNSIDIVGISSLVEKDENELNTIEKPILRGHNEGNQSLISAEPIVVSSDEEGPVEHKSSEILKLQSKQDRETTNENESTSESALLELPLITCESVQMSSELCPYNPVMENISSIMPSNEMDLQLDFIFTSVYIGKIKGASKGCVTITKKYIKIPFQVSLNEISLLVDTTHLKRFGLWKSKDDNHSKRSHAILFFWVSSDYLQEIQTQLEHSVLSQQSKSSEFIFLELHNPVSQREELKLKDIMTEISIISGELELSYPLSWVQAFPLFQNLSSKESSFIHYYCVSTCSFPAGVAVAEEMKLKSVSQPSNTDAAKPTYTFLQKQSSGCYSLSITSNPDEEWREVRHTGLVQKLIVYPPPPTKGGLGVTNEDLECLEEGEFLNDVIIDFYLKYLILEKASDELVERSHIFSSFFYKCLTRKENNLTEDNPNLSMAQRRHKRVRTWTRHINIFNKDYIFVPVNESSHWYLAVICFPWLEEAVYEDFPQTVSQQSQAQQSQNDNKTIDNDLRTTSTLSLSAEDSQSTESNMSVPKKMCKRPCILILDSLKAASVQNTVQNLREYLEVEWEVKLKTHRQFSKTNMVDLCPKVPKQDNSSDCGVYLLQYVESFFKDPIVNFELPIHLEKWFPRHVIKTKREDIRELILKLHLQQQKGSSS

[11] = target: T5, Sentrin-specific protease 8 (Homo sapiens, UniProt Q96LD8); assay: SENP8 protease inhibitors, SAR follow-up, biochemical, luminescence, set 2 (AID 588601); format: functional
T5 sequence (Q96LD8 whole entry): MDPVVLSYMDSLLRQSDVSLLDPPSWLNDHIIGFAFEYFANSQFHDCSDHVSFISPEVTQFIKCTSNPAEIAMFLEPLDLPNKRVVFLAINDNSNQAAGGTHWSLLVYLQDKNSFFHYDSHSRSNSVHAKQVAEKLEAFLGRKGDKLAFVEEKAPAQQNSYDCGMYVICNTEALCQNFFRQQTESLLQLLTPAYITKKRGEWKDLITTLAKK

Caspase-3 [12] = target: T6, Caspase-3 (Homo sapiens, UniProt P42574); assay: caspase-3 inhibitors as off-family protease, SAR follow-up, selectivity assay for SENP protease inhibitor project, biochemical, luminescence, set 2 (AID 588599); format: functional
T6 sequence (P42574 whole entry): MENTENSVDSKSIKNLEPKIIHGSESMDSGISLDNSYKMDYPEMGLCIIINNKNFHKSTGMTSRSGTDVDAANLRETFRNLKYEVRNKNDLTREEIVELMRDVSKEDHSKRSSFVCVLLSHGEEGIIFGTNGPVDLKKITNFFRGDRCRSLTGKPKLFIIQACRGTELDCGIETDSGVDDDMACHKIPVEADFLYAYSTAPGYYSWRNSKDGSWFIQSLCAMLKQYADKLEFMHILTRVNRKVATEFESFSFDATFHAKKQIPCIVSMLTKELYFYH

[13] = target: T5, Sentrin-specific protease 8; assay: SENP8 protease inhibitors, SAR follow-up, biochemical, luminescence (AID 504501); format: functional
[14] = target: T4, Sentrin-specific protease 7; assay: SENP7 protease inhibitors, SAR follow-up, biochemical, luminescence (AID 504497); format: functional
Caspase-3 [15] = target: T6, Caspase-3; assay: SAR Analysis of small molecule inhibitors of Sentrin-specific proteases (SENPs) using a Caspase-3 Selectivity assay. [Related pubchem assays (depositor defined):AID2540, AID2599, AID434973, AID489001]; format: functional
[16] = target: T3, Sentrin-specific protease 6; assay: SAR Analysis of small molecule inhibitors of Sentrin-specific protease 6 (SENP6) using a Luminescent assay. [Related pubchem assays (depositor defined):AID2582, AID2599]; format: functional
[17] = target: Protein disulfide-isomerase (Homo sapiens, UniProt P07237); assay: PDI inhibitors, insulin aggregation turbidity, dose response, biochemical, absorbance, cherry-picked samples (AID 602350); format: functional
Sequence of Protein disulfide-isomerase (P07237 whole entry): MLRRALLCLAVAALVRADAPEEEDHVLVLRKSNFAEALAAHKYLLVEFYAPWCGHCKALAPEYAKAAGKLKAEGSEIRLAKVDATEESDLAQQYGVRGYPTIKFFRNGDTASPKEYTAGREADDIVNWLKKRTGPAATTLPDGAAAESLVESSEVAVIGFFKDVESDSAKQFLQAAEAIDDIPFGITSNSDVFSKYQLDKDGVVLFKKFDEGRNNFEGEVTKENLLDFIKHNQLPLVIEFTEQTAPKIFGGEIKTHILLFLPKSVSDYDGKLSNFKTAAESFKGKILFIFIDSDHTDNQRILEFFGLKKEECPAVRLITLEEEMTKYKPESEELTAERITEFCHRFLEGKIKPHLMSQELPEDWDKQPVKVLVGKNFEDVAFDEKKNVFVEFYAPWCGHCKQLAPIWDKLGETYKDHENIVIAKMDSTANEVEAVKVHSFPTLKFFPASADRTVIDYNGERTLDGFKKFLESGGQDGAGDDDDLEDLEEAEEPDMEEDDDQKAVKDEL

## CCOc1ccccc1C(=O)Nc1ccc2nc3n(c(=O)c2c1)CCCCC3
[1]
  EC50: > 38 µM (not active)
[2]
  IC50: > 49.8 µM (inactive)
Orexin receptor type 2 [3]
  IC50: > 88.8 µM (inactive)
[4]
  IC50: 0.417 µM (active)
[5]
  AC50: > 30 µM (inactive)
[6]
  EC50: > 160 µM (inactive)
Orexin receptor type 2 [7]
  IC50: > 50 µM (inactive)
CHO-K1
  IC50: > 66.3 µM (inactive)
[8]
  IC50: 2.58 µM (active)

## O=C(COc1ccc(Cl)cc1Cl)NCC(=O)N/N=C/c1c[nH]c2ccccc12
[9]
  IC50: > 99 µM (inactive)
[10]
  IC50: > 99 µM (inactive)
[11]
  IC50: > 99 µM (inactive)
Caspase-3 [12]
  IC50: > 99 µM (inactive)

## CCc1cccc2sc(NC(=O)c3cccc(F)c3)nc12
[13]
  IC50: > 99 µM (inactive)
[14]
  IC50: > 99 µM (inactive)
Caspase-3 [15]
  IC50: > 99 µM (inactive)
[16]
  IC50: > 99 µM (inactive)

## C[C@H]1CN([C@@H](C)CO)C(=O)c2cc(NC(=O)Cc3cn(C)c4ccccc34)ccc2O[C@H]1CN(C)S(=O)(=O)c1ccc(F)cc1
[17]
  AC50: 19.5 µM (active)

## O=C(NCc1ccccc1F)C(=O)c1c[nH]c2ccccc12
[9]
  IC50: > 99 µM (inactive)
[10]
  IC50: > 99 µM (inactive)
[11]
  IC50: > 99 µM (inactive)
Caspase-3 [12]
  IC50: > 99 µM (inactive)

## Cn1c2ccc(Cl)cc2c2nc3ccccc3nc21
[2]
  IC50: > 49.8 µM (inactive)
Orexin receptor type 2 [3]
  IC50: > 88.8 µM (inactive)
[4]
  IC50: 1.13 µM (active)
Orexin receptor type 2 [7]
  IC50: > 50 µM (inactive)
CHO-K1
  IC50: > 66.2 µM (inactive)
[8]
  IC50: 4.25 µM (active)

## CC[C@]12c3[nH]c4cc(-c5ccco5)ccc4c3CCN1C(=O)[C@@H](CC(=O)NCCCOC)C[C@@H]2C(=O)N1CCN(C(=O)c2ccco2)CC1
[17]
  AC50: 16.7 µM (active)
